Measurements: US20170064988A1, “Delivery Systems for Natural High-Potency Sweetener Compositions, Methods for Their Formulation, and Uses” (The Coca-Cola Company, priority 2007, published 2017)

Tests used:
[1] = Dissolution of spray-dried amorphous rebaudioside A in water; type: physicochemical; details: room temperature, in 5 minutes
Procedure: A solution of rebaudioside A (>97% pure by HPLC) was prepared in double distilled water (12.5 gm in 50 mL, 25% concentration) by stirring the mixture at 40° C. for 5 minutes. An amorphous rebaudioside form of A was formed by immediately using the clear solution for spray drying with the Lab-Plant spray drier SD-04 instrument (Lab-Plant Ltd., West Yorkshire, U.K.). The solution was fed through the feed pump into the nozzle atomizer which atomized it into a spray of droplets with the help of a constant flow of nitrogen/air. […] This dry powder (11-12 g, H2O 6.74%) was discharged continuously from the drying chamber and was collected in a bottle. The material was dissolved rapidly in water at room temperature up to a concentration of 35.0% (w/v) in 5 minutes.

[2] = Rate of dissolution of rebaudioside A polymorphic and amorphous forms in water; type: physicochemical

## C=C1C[C@@]23CC[C@H]4[C@@](C)(CCC[C@@]4(C)C(=O)O[C@@H]4O[C@H](CO)[C@@H](O)[C@H](O)[C@H]4O)[C@@H]2CC[C@]1(O[C@@H]1O[C@H](CO)[C@@H](O)[C@H](O[C@@H]2O[C@H](CO)[C@@H](O)[C@H](O)[C@H]2O)[C@H]1O[C@@H]1O[C@H](CO)[C@@H](O)[C@H](O)[C@H]1O)C3 [Example F, rebaudioside A]
[1]
  Concentration dissolved rapidly in water: ≤ 35.0 % (w/v)

## C=C1C[C@@]23CC[C@H]4[C@@](C)(CCC[C@@]4(C)C(=O)O[C@@H]4O[C@H](CO)[C@@H](O)[C@H](O)[C@H]4O)[C@@H]2CC[C@]1(O[C@@H]1O[C@H](CO)[C@@H](O)[C@H](O[C@@H]2O[C@H](CO)[C@@H](O)[C@H](O)[C@H]2O)[C@H]1O[C@@H]1O[C@H](CO)[C@@H](O)[C@H](O)[C@H]1O)C3 [Form 1, rebaudioside A]
[2]
  Rate of dissolution in H2O at 25° C. (grade in words): Very low
[2]; in 60 minutes
  Rate of dissolution in H2O at 25° C., amount dissolved in 60 minutes: (<0.2% in

## C=C1C[C@@]23CC[C@H]4[C@@](C)(CCC[C@@]4(C)C(=O)O[C@@H]4O[C@H](CO)[C@@H](O)[C@H](O)[C@H]4O)[C@@H]2CC[C@]1(O[C@@H]1O[C@H](CO)[C@@H](O)[C@H](O[C@@H]2O[C@H](CO)[C@@H](O)[C@H](O)[C@H]2O)[C@H]1O[C@@H]1O[C@H](CO)[C@@H](O)[C@H](O)[C@H]1O)C3 [Form 2, rebaudioside A]
[2]
  Rate of dissolution in H2O at 25° C. (grade in words): Intermediate
  Rate of dissolution in H2O at 25° C., amount dissolved in 5 minutes: (<30% in

## C=C1C[C@@]23CC[C@H]4[C@@](C)(CCC[C@@]4(C)C(=O)O[C@@H]4O[C@H](CO)[C@@H](O)[C@H](O)[C@H]4O)[C@@H]2CC[C@]1(O[C@@H]1O[C@H](CO)[C@@H](O)[C@H](O[C@@H]2O[C@H](CO)[C@@H](O)[C@H](O)[C@H]2O)[C@H]1O[C@@H]1O[C@H](CO)[C@@H](O)[C@H](O)[C@H]1O)C3 [Form 3, rebaudioside A]
[2]
  Rate of dissolution in H2O at 25° C. (grade in words): High
  Rate of dissolution in H2O at 25° C., amount dissolved in 5 minutes: (>30% in

## C=C1C[C@@]23CC[C@H]4[C@@](C)(CCC[C@@]4(C)C(=O)O[C@@H]4O[C@H](CO)[C@@H](O)[C@H](O)[C@H]4O)[C@@H]2CC[C@]1(O[C@@H]1O[C@H](CO)[C@@H](O)[C@H](O[C@@H]2O[C@H](CO)[C@@H](O)[C@H](O)[C@H]2O)[C@H]1O[C@@H]1O[C@H](CO)[C@@H](O)[C@H](O)[C@H]1O)C3 [Form 4, rebaudioside A]
[2]
  Rate of dissolution in H2O at 25° C. (grade in words): High
  Rate of dissolution in H2O at 25° C., amount dissolved in 5 minutes: (>35% in
